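1) Cells in 96-well plates. 2) Compound, 48 h, 5 concentrations. 3) Linear interpolation between surrounding doses. 4) Unreached endpoint = highest concentration. Here, GI50 denotes the concentration required for 50% inhibition of growth.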 Active and inactive are the calls of the source. Cut-off read from the data, not from the text of the source: active = GI50 up to about 1.1 µM and inactive = higher.
Tests used:
Assay in all cases: DTP human tumour cell line panel, 48 h
LOX IMVI = test system: LOX IMVI
MDA-N = test system: MDA-N
BT-549 = test system: BT-549
UO-31 = test system: UO-31
HCT-15 = test system: HCT-15
SN12C = test system: SN12C
NCI-H226 = test system: NCI-H226
DU-145 = test system: DU-145
786-0 = test system: 786-0
OVCAR-3 = test system: OVCAR-3
SF-539 = test system: SF-539
HCT-116 = test system: HCT-116
UACC-62 = test system: UACC-62
SK-MEL-28 = test system: SK-MEL-28
HOP-92 = test system: HOP-92
HCC 2998 = test system: HCC 2998
SF-268 = test system: SF-268
RXF 393 = test system: RXF 393
SNB-75 = test system: SNB-75

SMILES | GI50 (LOX IMVI) | GI50 (MDA-N) | GI50 (BT-549) | GI50 (UO-31) | GI50 (HCT-15) [µM] | GI50 (SN12C) | GI50 (NCI-H226) | GI50 (DU-145) | GI50 (786-0) | GI50 (OVCAR-3) | GI50 (SF-539) | GI50 (HCT-116) | GI50 (UACC-62) | GI50 (SK-MEL-28) | GI50 (HOP-92) | GI50 (HCC 2998) | GI50 (SF-268) | GI50 (RXF 393) | GI50 (SNB-75)
Nc1ccc(Cc2c(N)[nH]c(=O)[nH]c2=O)cc1 | > 100 µM (inactive) | > 100 µM (inactive) | > 100 µM (inactive) | > 100 µM (inactive) | > 100 | > 100 µM (inactive) | 86.1 µM (inactive) | > 100 µM (inactive) | > 100 µM (inactive) | > 100 µM (inactive) | > 100 µM (inactive) | > 100 µM (inactive) | > 100 µM (inactive) | > 100 µM (inactive) | > 100 µM (inactive) | > 100 µM (inactive) | > 100 µM (inactive) | – | –
CCOC(=O)CCC(NC(=O)Cc1ccc(Oc2nc3ccccc3nc2-c2ccccc2)cc1)C(=O)OCC (stereo not given) | – | > 100 µM (inactive) | > 100 µM (inactive) | 52.5 µM (inactive) | > 100 | > 100 µM (inactive) | 19.5 µM (inactive) | > 100 µM (inactive) | 35.5 µM (inactive) | 96.8 µM (inactive) | 29.9 µM (inactive) | > 100 µM (inactive) | > 100 µM (inactive) | > 100 µM (inactive) | – | > 100 µM (inactive) | 27 µM (inactive) | 37.6 µM (inactive) | 37.8 µM (inactive)
CO[C@H](C)[C@](O)(C(=O)OCC1=CCN2CC[C@@H](O)[C@H]12)C(C)C | > 100 µM (inactive) | > 100 µM (inactive) | > 100 µM (inactive) | > 100 µM (inactive) | 55.2 | > 100 µM (inactive) | > 100 µM (inactive) | > 100 µM (inactive) | > 100 µM (inactive) | > 100 µM (inactive) | > 100 µM (inactive) | > 100 µM (inactive) | > 100 µM (inactive) | > 100 µM (inactive) | > 100 µM (inactive) | > 100 µM (inactive) | > 100 µM (inactive) | – | > 100 µM (inactive)
CCCn1c(SC)nc(COC(=O)NC)c1COC(=O)NC | > 100 µM (inactive) | > 100 µM (inactive) | > 100 µM (inactive) | > 100 µM (inactive) | > 100 | > 100 µM (inactive) | > 100 µM (inactive) | > 100 µM (inactive) | > 100 µM (inactive) | > 100 µM (inactive) | > 100 µM (inactive) | > 100 µM (inactive) | > 100 µM (inactive) | > 100 µM (inactive) | – | – | > 100 µM (inactive) | – | > 100 µM (inactive)
Cc1cc(C)nc(NS(=O)(=O)c2ccc(Nc3c4ccccc4nc4c(C(=O)NNCCO)cccc34)cc2)n1 | 34.6 µM (inactive) | > 100 µM (inactive) | > 100 µM (inactive) | > 100 µM (inactive) | > 100 | > 100 µM (inactive) | – | > 100 µM (inactive) | > 100 µM (inactive) | 86.9 µM (inactive) | – | – | 13.7 µM (inactive) | > 100 µM (inactive) | > 100 µM (inactive) | > 100 µM (inactive) | > 100 µM (inactive) | – | –
O=C(/C=C1/Nc2ccc([N+](=O)[O-])cc2N/C1=C/C(=O)c1ccccc1)c1ccccc1 | – | > 100 µM (inactive) | 18.5 µM (inactive) | 18.6 µM (inactive) | 11.5 | 40.8 µM (inactive) | 23.4 µM (inactive) | 43.7 µM (inactive) | 18.3 µM (inactive) | 16.7 µM (inactive) | 8.2 µM (inactive) | 20.7 µM (inactive) | 12.6 µM (inactive) | – | – | 55.8 µM (inactive) | 15.2 µM (inactive) | 14.3 µM (inactive) | 16.9 µM (inactive)
O=C1CCC2=C(CCC2)N1CCc1ccc2c(c1)OCO2 | 59.6 µM (inactive) | > 100 µM (inactive) | 20.8 µM (inactive) | 21.6 µM (inactive) | 43.1 | 95.1 µM (inactive) | 20.5 µM (inactive) | > 100 µM (inactive) | > 100 µM (inactive) | – | > 100 µM (inactive) | 48.2 µM (inactive) | 65 µM (inactive) | > 100 µM (inactive) | – | > 100 µM (inactive) | 77.6 µM (inactive) | 1.21 µM (inactive) | 29.2 µM (inactive)
CCCc1c2c3ccccc3nc-2nc2ccccn12 | 41.4 µM (inactive) | 74.5 µM (inactive) | > 100 µM (inactive) | 56.8 µM (inactive) | > 100 | 73.5 µM (inactive) | – | > 100 µM (inactive) | 28.4 µM (inactive) | 56 µM (inactive) | > 100 µM (inactive) | – | 72.3 µM (inactive) | > 100 µM (inactive) | 36.5 µM (inactive) | – | 24.4 µM (inactive) | – | > 100 µM (inactive)
Cc1cccc(/C=N/NC(=S)NCc2ccccn2)n1 | 14.7 µM (inactive) | 47.2 µM (inactive) | 58.2 µM (inactive) | 14.8 µM (inactive) | 23.7 | 30.6 µM (inactive) | 29.3 µM (inactive) | 15.1 µM (inactive) | 17.9 µM (inactive) | 74.5 µM (inactive) | 23.4 µM (inactive) | 29.4 µM (inactive) | 17.7 µM (inactive) | 45.8 µM (inactive) | 25.9 µM (inactive) | 41.7 µM (inactive) | 20 µM (inactive) | – | 17.6 µM (inactive)
c1c[nH]c(-c2cccc3nsnc23)c1 | 63.1 µM (inactive) | > 100 µM (inactive) | > 100 µM (inactive) | 44.6 µM (inactive) | 15.7 | 94.2 µM (inactive) | > 100 µM (inactive) | > 100 µM (inactive) | > 100 µM (inactive) | – | > 100 µM (inactive) | 59.7 µM (inactive) | 71.9 µM (inactive) | > 100 µM (inactive) | – | > 100 µM (inactive) | > 100 µM (inactive) | 38.1 µM (inactive) | 49.4 µM (inactive)
COCOc1cc(OC)c(Br)cc1C/C(=N/O)C(=O)OC | 73.5 µM (inactive) | 28 µM (inactive) | 70.1 µM (inactive) | 53.7 µM (inactive) | > 100 | > 100 µM (inactive) | > 100 µM (inactive) | > 100 µM (inactive) | > 100 µM (inactive) | 43.1 µM (inactive) | > 100 µM (inactive) | > 100 µM (inactive) | 40.6 µM (inactive) | > 100 µM (inactive) | – | > 100 µM (inactive) | 39.8 µM (inactive) | 28.5 µM (inactive) | 7.6 µM (inactive)
[O-][N+]1=C2CCC/C(=N/O)C2(O)C2CCCCC21N1CCOCC1 (stereo not given) | > 100 µM (inactive) | > 100 µM (inactive) | > 100 µM (inactive) | > 100 µM (inactive) | > 100 | > 100 µM (inactive) | > 100 µM (inactive) | – | > 100 µM (inactive) | > 100 µM (inactive) | > 100 µM (inactive) | > 100 µM (inactive) | > 100 µM (inactive) | > 100 µM (inactive) | – | > 100 µM (inactive) | > 100 µM (inactive) | 8.02 µM (inactive) | > 100 µM (inactive)
